Here are results for 1 molecule from patent US12577232B2, “N-heterocycle substituted tryptamine derivatives and methods of using” (ENVERIC B[…] INC., priority 2024, dated 2026).

Data set [1] deals with T1, 5-HT2A receptor (Homo sapiens, UniProt P28223).
T1 construct: purchased PerkinElmer ES-313-M400UA
Kind of data set: Functional cell-based 5-HT2A assay, agonism mode (CHO-K1/5-HT2A, Fluo-8 calcium flux). The settings on record: CHO-K1/5-HT2A cells. A general note: Calcium flux is commonly read through the fluorescence of an indicator in the cells.
Protocol: Herein, functional, cell-based assays were conducted to determine (1) agonist potency and efficacy of drugs at the 5-HT2A receptor (agonist mode), and (2) antagonist potency at the 5-HT2A receptor (antagonist mode).
All cells were grown and maintained as a monolayer in Ham's F12 nutrient mix supplemented with 10% fetal bovine serum (FBS) and 400 μg/mL geneticin (G418) all from ThermoFisher Scientific and used according to the manufacturer's instructions. Cells were cultured and incubated at 37° C. in a humidified oxygen atmosphere with 5% CO2. To evaluate the activation of 5-HT2A signal transduction, cells were first seeded in tissue culture-treated, black-walled, clear-bottom 96-well plates (Thermo Scientific) at a density of 40,000 cells/well in 100 pl Ham's F12 nutrient mix supplemented with 2% FBS. Cells were cultured for 24 h in a humidified incubator at 37° C. and 5% CO2. Cells were then loaded with Fluo-8 calcium indicator dye for 1 h at 37° C. and an additional 30 min at room temperature as per the manufacturer's protocol. […] Kinetic increases in intracellular calcium levels were measured immediately after addition of test compounds every 6.4 s for a total of 3 min using the FlexStation 3 multimode microplate reader and SoftMax Pro 7.1 analysis software (Molecular Devices, moleculardevices.com). […] EC50 values were calculated from the normalized data from GraphPad PRISM software.

For data set [2] the following is noted: after intravenous (and oral) psilocybin administration (Raithatha et al., 2023); cited from earlier work.
The target of data set [3] is T1, 5-HT2A receptor. Kind of data set: Functional cell-based 5-HT2A assay, antagonism mode (CHO-K1/5-HT2A, 100 nM serotonin, calcium flux). The settings on record: CHO-K1/5-HT2A cells, with 100 nM serotonin. The text has this:
A variety of 5-HT2A receptor engagement modes have been correlated with positive outcomes in the treatment of neurological disorders. While agonism is associated with a host of favourable effects, antagonizing the 5-HT2A receptor is also an attractive pharmacological approach. For example, antagonism is known to alleviate both dyskinesisa and psychosis in Parkinson's Disorder and holds promise for other psychiatric diseases (Mestre et al., 2013, Expert Opin. Investig. Drugs 22:411-421). Similarly positive outcomes are noted for inverse agonists (Cummings et al., 2014, Lancet, 383:533-540; Roberts, 2006, Curr. Opin. Invest. Drugs 7:653-660). […]
Stimulation of 5-HT2A coupled to the Gq family proteins leads to activation of the phospholipase C (PLC) pathway, ultimately resulting in the accumulation of cytosolic calcium (Cussac et al., Europ. J. Pharmacol., 2008, 594 (1-3), 32-38). […] Kinetic increases in intracellular calcium levels were measured immediately after addition of ligands every 6.4 s for a total of 3 min using the FlexStation 3 multimode microplate reader and SoftMax Pro 7.1 analysis software (Molecular Devices, moleculardevices.com). […] IC50 values were calculated from the normalized data from GraphPad PRISM software. […]

Data set [4] relates to stressed C57BL/6-Elite mice. The data set can be described thus: Mouse marble burying (MB) assay to assess anxiolytic potential. The data set is classed as in vivo. The settings on record: i.p., psilocin 3 mg/kg, compound (XV) 10 mg/kg; vs Vehicle+Stress. The method, then:
Marble burying behavior is used to measure the level of anxiety in a rodent when it encounters unfamiliar objects (Deacon, 2006, Nature Protocols 1:122-124). This assay is routinely applied to the study of chronically stressed mice, where drug candidates are evaluated for an ability to diminish stress-induced, anxiety-like behaviours (e.g., Wang et al., ACS Chem. Neurosci. 14:977-987). Positive results in this assay may be interpreted as an indication of therapeutic (anxiolytic) potential in the treatment of various psychiatric disorders. Herein, we applied the marble burying model to investigate whether selected drugs could alleviate anxiety behaviour in stressed mice.
All animal protocols were approved by the University of Calgary Animal Care and Use Committee. C57BL/6-Elite mixed sex mice were obtained from Charles River Laboratories (Toronto, Canada) at 8-9 weeks old. […]
On the testing days, 10 glass marbles (approx. 15 mm in diameter) were evenly spaced on 5 cm of wood-chip bedding (lightly tamped down to make a flat and even surface). […] The number of marbles buried to ⅔rds their depth was measured. Fully buried marbles were counted as 1 and partially (at least ⅔rds) buried marbles were counted as 0.5. […]

For data set [5], the system named is stressed C57BL/6-Elite mice. Kind of data set: Mouse sucrose preference (SP) assay to assess antidepressant potential. The class given is in vivo. The settings on record: i.p., psilocin 3 mg/kg, compound (XV) 10 mg/kg; one day after administration. The method, then: Reduced intake of pleasurable substances, e.g., of sucrose water, is a validated behavioral measure of anhedonic/depressive-like state in rodents (Moreau et al., 1992, Eur. Neurpsychopharmocol. 2:43-49; Liu et al., 2018, Nature Protocols 13:1686-1698). […] In the SP assay, cohorts of mice are pre-stressed, leading to a depressed state. The ability of drugs to rescue this state are evaluated.
All animal protocols were approved by the University of Calgary Animal Care and Use Committee. C57BL/6-Elite mixed sex mice were obtained from Charles River Laboratories (Toronto, Canada) at 8-9 weeks old. Mice were maintained on a 12:12 h light/dark schedule (lights on at 07:00 hours) with ad libitum access to food and water and group-housed until 2 days prior to the start of the mild chronic stress paradigm, then mice were single-housed. […]
Mice were introduced to 1% sucrose solution in their drinking water for 24 hrs for 2 days prior to initial sucrose preference testing to reduce impact of novelty. […] The consumption in water, sucrose solution, and total intake of liquids was measured by weighing each bottle before and after the 24-hr experiment. The preference for sucrose was calculated as a percentage of the consumed sucrose solution from the total intake of both water and sucrose solutions. […]

A value given as a limit tells only on which side of the number the result lay.

T1 sequence (P28223 whole entry): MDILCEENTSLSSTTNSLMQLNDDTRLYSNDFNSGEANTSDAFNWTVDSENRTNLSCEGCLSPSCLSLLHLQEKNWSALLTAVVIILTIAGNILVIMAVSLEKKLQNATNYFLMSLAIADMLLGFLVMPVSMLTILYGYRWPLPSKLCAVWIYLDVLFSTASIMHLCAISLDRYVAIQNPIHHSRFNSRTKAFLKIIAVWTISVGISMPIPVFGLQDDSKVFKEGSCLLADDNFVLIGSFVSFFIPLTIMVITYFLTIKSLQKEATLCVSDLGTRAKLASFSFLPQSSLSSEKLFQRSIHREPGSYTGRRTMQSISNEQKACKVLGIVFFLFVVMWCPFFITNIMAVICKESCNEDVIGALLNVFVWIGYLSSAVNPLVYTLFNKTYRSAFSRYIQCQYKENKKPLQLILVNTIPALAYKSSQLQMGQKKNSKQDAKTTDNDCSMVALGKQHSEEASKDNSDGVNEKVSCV

Take `CN(C)CCc1c[nH]c2cccc(O)c12` [psilocin, reference compound]: the “engagement at the 5-HT2A receptor, agonist mode” value at 5-HT2A receptor [1] is “agonism”. For the same molecule, in data set [2], the persistence in plasma was over 8 h. Also, the “engagement at the 5-HT2A receptor, antagonist mode” value on 5-HT2A receptor [3] is recorded as “antagonism”. Also, in data set [4], the “anxiety-linked (marble burying) behavior in stressed mice” value is on record as “rescued”. Moreover, the “sucrose preference behaviour in stressed mice vs no drug control” value in data set [5] is “significantly elevated”.
